Target: LSD-1 enzyme (Homo sapiens (Human), UniProt O60341)
Experimental: LSD1 Histone Demethylase Biochemical Assay
LANCE LSD1/KDM1A demethylase assay-10 μL of 1 nM LSD-1 enzyme (ENZO BML-SE544-0050) in the assay buffer (50 mM Tris, pH 7.5, 0.01% Tween-20, 25 mM NaCl, 5 mM DTT) were preincubated for 1 hour at 25° C. with 0.8 μL compound/DMSO dotted in black 384 well polystyrene plates. […] After stopping the reactions plates were incubated for 30 minutes and read on a PHERAstar FS plate reader (BMG Labtech).

Compound	IC50
O=C(O)C1(CN2CCC(CN[C@@H]3C[C@H]3c3ccccc3)(COCc3ccccc3)CC2)CCC1 [Example 73, 1-{[4-[(benzyloxy)methyl]-4-({[(1R,2S)-2-phenylcyclopropyl]amino}methyl)piperidin-1-yl]methyl}cyclobutanecarboxylic acid]	< 100 nM
N#Cc1ccc(CC2(CN[C@@H]3C[C@H]3c3ccccc3)CCN(CC3(C(=O)O)CC3)CC2)c(F)c1 [Example 74, 1-{[4-(4-cyano-2-fluorobenzyl)-4-({[(1R,2S)-2-phenylcyclopropyl]amino}methyl)piperidin-1-yl]methyl}cyclopropanecarboxylic acid]	< 100 nM
O=C(O)C1(CN2CCC(CN[C@@H]3C[C@H]3c3ccccc3)(COc3ccccc3F)CC2)CC1 [Example 75, 1-{[4-[(2-fluorophenoxy)methyl]-4-({[(1R,2S)-2-phenylcyclopropyl]amino}methyl)piperidin-1-yl]methyl}cyclopropanecarboxylic acid]	< 100 nM
O=C(O)C1(CN2CCC(CN[C@@H]3C[C@H]3c3ccccc3)(COc3ccccc3F)CC2)CCC1 [Example 76, 1-{[4-[(2-fluorophenoxy)methyl]-4-({[(1R,2S)-2-phenylcyclopropyl]amino}methyl)piperidin-1-yl]methyl}cyclobutanecarboxylic acid]	< 100 nM
O=C(O)C1(CN2CCC(CN[C@@H]3C[C@H]3c3ccccc3)(COc3cccc(F)c3)CC2)CC1 [Example 77, 1-{[4-[(3-fluorophenoxy)methyl]-4-({[(1R,2S)-2-phenylcyclopropyl]amino}methyl)piperidin-1-yl]methyl}cyclopropanecarboxylic acid]	< 100 nM
O=C(O)C1(CN2CCC(CN[C@@H]3C[C@H]3c3ccccc3)(COc3cccc(F)c3)CC2)CCC1 [Example 78, 1-{[4-[(3-fluorophenoxy)methyl]-4-({[(1R,2S)-2-phenylcyclopropyl]amino}methyl)piperidin-1-yl]methyl}cyclobutanecarboxylic acid]	< 100 nM
N#Cc1ccccc1OCC1(CN[C@@H]2C[C@H]2c2ccccc2)CCN(CC2(C(=O)O)CC2)CC1 [Example 79, 1-{[4-[(2-cyanophenoxy)methyl]-4-({[(1R,2S)-2-phenylcyclopropyl]amino}methyl)piperidin-1-yl]methyl}cyclopropanecarboxylic acid]	< 100 nM
N#Cc1cccc(OCC2(CN[C@@H]3C[C@H]3c3ccccc3)CCN(CC3(C(=O)O)CC3)CC2)c1 [Example 80, 1-{[4-[(3-cyanophenoxy)methyl]-4-({[(1R,2S)-2-phenylcyclopropyl]amino}methyl)piperidin-1-yl]methyl}cyclopropanecarboxylic acid]	< 100 nM
N#Cc1ccc(OCC2(CN[C@@H]3C[C@H]3c3ccccc3)CCN(CC3(C(=O)O)CC3)CC2)cc1 [Example 81, 1-{[4-[(4-cyanophenoxy)methyl]-4-({[(1R,2S)-2-phenylcyclopropyl]amino}methyl)piperidin-1-yl]methyl}cyclopropanecarboxylic acid]	< 100 nM
N#Cc1ccc(OCC2(CN[C@@H]3C[C@H]3c3ccccc3)CCN(CC3(C(=O)O)CC3)CC2)c(F)c1 [Example 82, 1-{[4-[(4-cyano-2-fluorophenoxy)methyl]-4-({[(1R,2S)-2-phenylcyclopropyl]amino}methyl)piperidin-1-yl]methyl}cyclopropanecarboxylic acid]	< 100 nM
N#Cc1ccccc1OCC1(CN[C@@H]2C[C@H]2c2ccccc2)CCN(CC2(C(=O)O)CCC2)CC1 [Example 83, 1-{[4-[(2-cyanophenoxy)methyl]-4-({[(1R,2S)-2-phenylcyclopropyl]amino}methyl)piperidin-1-yl]methyl}cyclobutanecarboxylic acid]	< 100 nM
N#Cc1cccc(OCC2(CN[C@@H]3C[C@H]3c3ccccc3)CCN(CC3(C(=O)O)CCC3)CC2)c1 [Example 84, 1-{[4-[(3-cyanophenoxy)methyl]-4-({[(1R,2S)-2-phenylcyclopropyl]amino}methyl)piperidin-1-yl]methyl}cyclobutanecarboxylic acid]	< 100 nM
N#Cc1ccc(OCC2(CN[C@@H]3C[C@H]3c3ccccc3)CCN(CC3(C(=O)O)CCC3)CC2)cc1 [Example 85, 1-{[4-[(4-cyanophenoxy)methyl]-4-({[(1R,2S)-2-phenylcyclopropyl]amino}methyl)piperidin-1-yl]methyl}cyclobutanecarboxylic acid]	< 100 nM
N#Cc1ccc(OCC2(CN[C@@H]3C[C@H]3c3ccccc3)CCN(CC3(C(=O)O)CCC3)CC2)c(F)c1 [Example 86, 1-{[4-[(4-cyano-2-fluorophenoxy)methyl]-4-({[(1R,2S)-2-phenylcyclopropyl]amino}methyl)piperidin-1-yl]methyl}cyclobutanecarboxylic acid]	< 100 nM
O=C(O)C1(CN2CCC(CN[C@@H]3C[C@H]3c3ccccc3)(COc3ccc(F)cn3)CC2)CC1 [Example 87, 1-{[4-{[(5-fluoropyridin-2-yl)oxy]methyl}-4-({[(1R,2S)-2-phenylcyclopropyl]amino}methyl)piperidin-1-yl]methyl}cyclopropanecarboxylic acid]	< 100 nM
O=C(O)C1(CN2CCC(CN[C@@H]3C[C@H]3c3ccccc3)(COc3ncc(F)cn3)CC2)CC1 [Example 88, 1-{[4-{[(5-fluoropyrimidin-2-yl)oxy]methyl}-4-({[(1R,2S)-2-phenylcyclopropyl]amino}methyl)piperidin-1-yl]methyl}cyclopropanecarboxylic acid]	< 100 nM
O=C(O)C1(CN2CCC(CN[C@@H]3C[C@H]3c3ccccc3)(COc3ncccc3F)CC2)CC1 [Example 89, 1-{[4-{[(3-fluoropyridin-2-yl)oxy]methyl}-4-({[(1R,2S)-2-phenylcyclopropyl]amino}methyl)piperidin-1-yl]methyl}cyclopropanecarboxylic acid]	< 100 nM
CNC(=O)c1ccc(OCC2(CN[C@@H]3C[C@H]3c3ccccc3)CCN(CC3(C(=O)O)CC3)CC2)cn1 [Example 90, 1-{[4-[({6-[(methylamino)carbonyl]pyridin-3-yl}oxy)methyl]-4-({[(1R,2S)-2-phenylcyclopropyl]amino}methyl)piperidin-1-yl]methyl}cyclopropanecarboxylic acid]	< 100 nM
CNC(=O)c1cccc(OCC2(CN[C@@H]3C[C@H]3c3ccccc3)CCN(CC3(C(=O)O)CC3)CC2)n1 [Example 91, 1-{[4-[({6-[(methylamino)carbonyl]pyridin-2-yl}oxy)methyl]-4-({[(1R,2S)-2-phenylcyclopropyl]amino}methyl)piperidin-1-yl]methyl}cyclopropanecarboxylic acid]	< 100 nM
O=C(O)C1(CN2CCC(CN[C@@H]3C[C@H]3c3ccccc3)(COCC3CCC3)CC2)CCC1 [Example 93, 1-{[4-[(cyclobutylmethoxy)methyl]-4-({[(1R,2S)-2-phenylcyclopropyl]amino}methyl)piperidin-1-yl]methyl}cyclobutanecarboxylic acid]	< 100 nM
O=C(O)C1(CN2CCC(CN[C@@H]3C[C@H]3c3ccccc3)(COC3CCCCC3)CC2)CC1 [Example 94, 1-{[4-[(cyclohexyloxy)methyl]-4-({[(1R,2S)-2-phenylcyclopropyl]amino}methyl)piperidin-1-yl]methyl}cyclopropanecarboxylic acid]	< 100 nM

— patent US9670210B2, “Cyclopropylamines as LSD1 inhibitors” (Incyte Corporation, priority 2014, dated 2017)
